Assay results from PubChem BioAssay (NCI).
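Each compound was tested at five concentrations against cells in 96-well plates for 48 hours. At the TGI there is no net growth.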

System: MDA-MB-435
Test: growth of human tumour cells (NCI), 48 h

Structure (SMILES) | TGI [µM]
C(=C(c1ccc(OC2CCCCO2)cc1)c1ccc(OC2CCCCO2)cc1)c1ccccc1 (stereo not given) | 1.7
C[C@]12CC[C@H](O)CC1=CC[C@@H]1[C@@H]2CC[C@]2(C)C(=N/N)/C(=N\O)C[C@@H]12 | 5
O=C(c1ccccn1)C1(N2CCCCC2)CCCCC1 | > 100
Cc1ccc(NC(=O)c2ccc(OP(=O)(O)Nc3ccc(C)cc3)cc2)cc1 | > 100
Cc1ccnc(NS(=O)(=O)c2ccc(N=[N+]=[N-])cc2)n1 | > 100
Cc1ccccc1C(=N)c1ccccc1Cc1cccc2ccccc12 | 52.9
COc1ccc(-c2[nH]c3c4c(nc5c(c24)C(=O)CC(C)(C)C5)CC(C)(C)C3)cc1 | > 100
Cc1ccccc1OC(C)C(=O)NN1C(=O)CSC1c1ccccc1 (stereo not given) | > 100
CC(C)=CCC[C@@H](C)c1c(O)c(O)c(C)c2nccnc12 | > 100
S=C(N/N=C(/c1ccccc1)c1ccccn1)N(Cc1ccccn1)Cc1ccccn1 | 3.56
O=c1[nH]c(=S)[nH]c2c1C(c1ccc([N+](=O)[O-])cc1)c1c([nH]c(=S)[nH]c1=O)O2 | > 100
Cn1c(=O)c2c(nc3n2CC(C(=O)O)N3)n(C)c1=O (stereo not given) | > 100
Cc1oc2c(cc(O)c3cc(O)ccc32)c2cccc1-2 | > 100
NC(N)=Nc1ccc(CC(N)NCC(=O)O)cc1 (stereo not given) | > 25
O=C(OCc1ccccc1)N1CCNCCN(C(=O)OCc2ccccc2)CCNCC1 | 64.6
COP(=O)(OC)C1=c2c(C)noc2=C2C=COC2C1=O (stereo not given) | > 100
N#CC(NCc1cccc(CNC(C#N)c2ccccc2)c1)c1ccccc1 (stereo not given) | > 100

System: HOP-92 NSCLC
Test: growth of human tumour cells (NCI), 48 h

Structure (SMILES) | TGI [µM]
CCOC(=O)c1c(CN2CCCC2)n(-c2ccccc2)c2cc(Br)c(O)cc12 | 44
Nn1c(-c2ccccc2)n[nH]c1=O | > 100
Nn1c(Nc2ccc(S(=O)(=O)Nc3ncccn3)cc2)nnc(/C=C/c2c(O)ccc3ccccc23)c1=O | > 100
Cc1cc(-c2nc3ccc(F)cc3s2)ccc1NC(=O)[C@H](C)N | 24.7
C=CC1(CC/C(=C\[N+](=O)[O-])c2ccc(OC)c(OC)c2)OCC(C)(C)CO1 | 54.8
Nc1c(-c2ccc(Cl)c(Cl)c2)c2ccc([N+](=O)[O-])cc2c(=O)n1-c1nc2ccccc2s1 | 2.81
NS(=O)(=O)c1nnc(NC(=O)Nc2ccc(Cl)c(Cl)c2)s1 | 42.3
COC(=O)c1c(C)nc2c1cc(O)c1[nH]c(C)c(C)nc12 | > 100
O=[N+]([O-])c1cc(C=NC23CC4CC(CC(C4)C2)C3)ccc1Cl | 60.5
COc1cc(S(=O)(=O)Nc2nc(-c3ccc(N4C(=O)C(CC(=O)O)SC4c4cccs4)cc3)cs2)ccc1Cl (stereo not given) | 89.5
CCCCCC1=CC(=O)C1(Cl)Cl | 63.3
CC(=O)N(C(=O)CC(=O)N1N=C(c2ccccc2)C(N=Nc2ccccc2[N+](=O)[O-])C1=O)c1ccc(Cl)cc1 (stereo not given) | > 10
CC(=O)N1C(C(=O)NC2CCCCC2)CSC1c1ccccc1 (stereo not given) | > 100
Oc1ccccc1CNCc1nc2ccccc2[nH]1 | > 100
COc1ncc(/C=C2\OC(=O)c3ccccc32)c(OC)n1 | > 100
CC(=O)Nn1c(=S)[nH]c2ccccc21 | > 100
C[C@]12CCC3C4=C(CCC3C1CCC2=O)C(=O)[C@H]1O[C@H]1C4=O (stereo not given in full) | 16.8
CCCCOC(=O)Nc1ccc(S(=O)(=O)Nc2ccccc2Cl)cc1 | 30
Oc1[nH]c2ccccc2c1N=Nc1nc(-c2ccc(Br)cc2)cs1 | 31.7
CC(C)c1cc2c(cc1S(=O)(=O)O)[C@@]1(C)CCC[C@@](C)(C(=O)O)C1CC2 (stereo not given in full) | > 100
N#CC(Cc1ccccc1)N(CCC1=CCCCC1)C(c1ccccc1)c1ccccc1 (stereo not given) | > 100
C/C(=C\CBr)CCC(Br)C(C)(C)Br (stereo not given) | > 100

Structure (SMILES) | TGI [µM]
C#CCn1c(=O)c2ccccc2n(CC#C)c1=O | > 10
O=C1CCC2(c3ccc(Cl)cc3)Nc3ccncc3N12 (stereo not given) | > 10
[N-]=[N+]=NC(c1ccccc1)(c1ccccc1)c1ccccc1 | 32.3
CC(=O)c1c2c(c3ccccc3c1O)O[C@@H]1OCC[C@H]21 | > 100
C(=C(c1ccc(OC2CCCCO2)cc1)c1ccc(OC2CCCCO2)cc1)c1ccccc1 (stereo not given) | 1.96
C[C@]12CC[C@H](O)CC1=CC[C@@H]1[C@@H]2CC[C@]2(C)C(=N/N)/C(=N\O)C[C@@H]12 | 11.8
O=C(c1ccccn1)C1(N2CCCCC2)CCCCC1 | 64.9
Cc1ccc(NC(=O)c2ccc(OP(=O)(O)Nc3ccc(C)cc3)cc2)cc1 | > 100
Cc1ccnc(NS(=O)(=O)c2ccc(N=[N+]=[N-])cc2)n1 | > 100
Cc1ccccc1C(=N)c1ccccc1Cc1cccc2ccccc12 | 54.8
COc1ccc(-c2[nH]c3c4c(nc5c(c24)C(=O)CC(C)(C)C5)CC(C)(C)C3)cc1 | > 100
Cc1ccccc1OC(C)C(=O)NN1C(=O)CSC1c1ccccc1 (stereo not given) | > 100
CC(C)=CCC[C@@H](C)c1c(O)c(O)c(C)c2nccnc12 | > 94.2
S=C(N/N=C(/c1ccccc1)c1ccccn1)N(Cc1ccccn1)Cc1ccccn1 | 1.45
O=c1[nH]c(=S)[nH]c2c1C(c1ccc([N+](=O)[O-])cc1)c1c([nH]c(=S)[nH]c1=O)O2 | > 100
Cn1c(=O)c2c(nc3n2CC(C(=O)O)N3)n(C)c1=O (stereo not given) | > 100
Cc1oc2c(cc(O)c3cc(O)ccc32)c2cccc1-2 | > 100
NC(N)=Nc1ccc(CC(N)NCC(=O)O)cc1 (stereo not given) | > 25
O=C(OCc1ccccc1)N1CCNCCN(C(=O)OCc2ccccc2)CCNCC1 | > 100
COP(=O)(OC)C1=c2c(C)noc2=C2C=COC2C1=O (stereo not given) | > 100
N#CC(NCc1cccc(CNC(C#N)c2ccccc2)c1)c1ccccc1 (stereo not given) | 89.8

System: MDA-N
Test: growth of human tumour cells (NCI), 48 h

Structure (SMILES) | TGI [µM]
CCOC(=O)c1c(CN2CCCC2)n(-c2ccccc2)c2cc(Br)c(O)cc12 | 32.2
Nn1c(-c2ccccc2)n[nH]c1=O | > 100
Nn1c(Nc2ccc(S(=O)(=O)Nc3ncccn3)cc2)nnc(/C=C/c2c(O)ccc3ccccc23)c1=O | > 100
Cc1cc(-c2nc3ccc(F)cc3s2)ccc1NC(=O)[C@H](C)N | 6.19
C=CC1(CC/C(=C\[N+](=O)[O-])c2ccc(OC)c(OC)c2)OCC(C)(C)CO1 | 55.5
Nc1c(-c2ccc(Cl)c(Cl)c2)c2ccc([N+](=O)[O-])cc2c(=O)n1-c1nc2ccccc2s1 | > 36
NS(=O)(=O)c1nnc(NC(=O)Nc2ccc(Cl)c(Cl)c2)s1 | 44.8
COC(=O)c1c(C)nc2c1cc(O)c1[nH]c(C)c(C)nc12 | > 100
O=[N+]([O-])c1cc(C=NC23CC4CC(CC(C4)C2)C3)ccc1Cl | 32.3
COc1cc(S(=O)(=O)Nc2nc(-c3ccc(N4C(=O)C(CC(=O)O)SC4c4cccs4)cc3)cs2)ccc1Cl (stereo not given) | > 100
CCCCCC1=CC(=O)C1(Cl)Cl | 28.3
CC(=O)N(C(=O)CC(=O)N1N=C(c2ccccc2)C(N=Nc2ccccc2[N+](=O)[O-])C1=O)c1ccc(Cl)cc1 (stereo not given) | > 10
CC(=O)N1C(C(=O)NC2CCCCC2)CSC1c1ccccc1 (stereo not given) | > 100
Oc1ccccc1CNCc1nc2ccccc2[nH]1 | > 100
COc1ncc(/C=C2\OC(=O)c3ccccc32)c(OC)n1 | > 100
CC(=O)Nn1c(=S)[nH]c2ccccc21 | > 100
C[C@]12CCC3C4=C(CCC3C1CCC2=O)C(=O)[C@H]1O[C@H]1C4=O (stereo not given in full) | 19.4
CCCCOC(=O)Nc1ccc(S(=O)(=O)Nc2ccccc2Cl)cc1 | 33.8
Oc1[nH]c2ccccc2c1N=Nc1nc(-c2ccc(Br)cc2)cs1 | > 100
CC(C)c1cc2c(cc1S(=O)(=O)O)[C@@]1(C)CCC[C@@](C)(C(=O)O)C1CC2 (stereo not given in full) | > 100
N#CC(Cc1ccccc1)N(CCC1=CCCCC1)C(c1ccccc1)c1ccccc1 (stereo not given) | > 100
C/C(=C\CBr)CCC(Br)C(C)(C)Br (stereo not given) | > 100

Structure (SMILES) | TGI [µM]
C#CCn1c(=O)c2ccccc2n(CC#C)c1=O | > 10
O=C1CCC2(c3ccc(Cl)cc3)Nc3ccncc3N12 (stereo not given) | > 10
[N-]=[N+]=NC(c1ccccc1)(c1ccccc1)c1ccccc1 | 31.4
CC(=O)c1c2c(c3ccccc3c1O)O[C@@H]1OCC[C@H]21 | > 100
C(=C(c1ccc(OC2CCCCO2)cc1)c1ccc(OC2CCCCO2)cc1)c1ccccc1 (stereo not given) | 1.75
C[C@]12CC[C@H](O)CC1=CC[C@@H]1[C@@H]2CC[C@]2(C)C(=N/N)/C(=N\O)C[C@@H]12 | 48.2
O=C(c1ccccn1)C1(N2CCCCC2)CCCCC1 | > 100
Cc1ccc(NC(=O)c2ccc(OP(=O)(O)Nc3ccc(C)cc3)cc2)cc1 | > 100
Cc1ccnc(NS(=O)(=O)c2ccc(N=[N+]=[N-])cc2)n1 | > 100
Cc1ccccc1C(=N)c1ccccc1Cc1cccc2ccccc12 | 65.7
COc1ccc(-c2[nH]c3c4c(nc5c(c24)C(=O)CC(C)(C)C5)CC(C)(C)C3)cc1 | > 100
Cc1ccccc1OC(C)C(=O)NN1C(=O)CSC1c1ccccc1 (stereo not given) | > 100
CC(C)=CCC[C@@H](C)c1c(O)c(O)c(C)c2nccnc12 | > 100
S=C(N/N=C(/c1ccccc1)c1ccccn1)N(Cc1ccccn1)Cc1ccccn1 | 7.62
O=c1[nH]c(=S)[nH]c2c1C(c1ccc([N+](=O)[O-])cc1)c1c([nH]c(=S)[nH]c1=O)O2 | > 100
Cn1c(=O)c2c(nc3n2CC(C(=O)O)N3)n(C)c1=O (stereo not given) | > 100
Cc1oc2c(cc(O)c3cc(O)ccc32)c2cccc1-2 | > 100
NC(N)=Nc1ccc(CC(N)NCC(=O)O)cc1 (stereo not given) | > 25
O=C(OCc1ccccc1)N1CCNCCN(C(=O)OCc2ccccc2)CCNCC1 | 31
COP(=O)(OC)C1=c2c(C)noc2=C2C=COC2C1=O (stereo not given) | > 100
N#CC(NCc1cccc(CNC(C#N)c2ccccc2)c1)c1ccccc1 (stereo not given) | > 100

System: CAKI-1 renal
Test: growth of human tumour cells (NCI), 48 h

Structure (SMILES) | TGI [µM]
CCOC(=O)c1c(CN2CCCC2)n(-c2ccccc2)c2cc(Br)c(O)cc12 | 40.8
Nn1c(-c2ccccc2)n[nH]c1=O | > 100
